Source: patent US20070167430A1, “Compounds useful in therapy” (priority 2004, published 2007)

target: T1, human V1A receptor (Homo sapiens, UniProt P37288); experiment: V1A filter binding assay ([3H]-AVP binding to CHO-hV1A membranes); details: screen 1.0, [3H]-AVP displacement
T1 construct: expressed in transfected cells
Procedure: 1.0 V1A Filter Binding Assay
Receptor binding assays were performed on cellular membranes prepared from CHO cells stably expressing the human V1A receptor, (CHO-hV1A). The CHO-hV1A cell line was kindly provided under a licensing agreement by Marc Thibonnier, Dept. of Medicine, Case Western Reserve University School of Medicine, Cleveland, Ohio. CHO-hV1A cells were routinely maintained at 37° C. in humidified atmosphere with 5% CO2 in DMEM/Hams F12 nutrient mix supplemented with 10% fetal bovine serum, 2 mM L-glutamine, 15 mM HEPES and 400 μg/ml G418. For bulk production of cell pellets, adherent CHO-hV1A cells were grown to confluency of 90-100% in 850 cm^2 roller bottles containing a medium of DMEM/Hams F12 Nutrient Mix supplemented with 10% fetal bovine serum, 2 mM L-glutamine and 15 mM HEPES. Confluent CHO-hV1A cells were washed with phosphate-buffered saline (PBS), harvested into ice cold PBS and centrifuged at 1,000 rpm. Cell pellets were stored at −80° C. until use. Cell pellets were thawed on ice and homogenised in membrane preparation buffer consisting of 50 mM Tris-HCl, pH 7.4, 5 mM MgCl2 and supplemented with a protease inhibitor cocktail, (Roche). The cell homogenate was centrifuged at 1000 rpm, 10 min, 4° C. and the supernatant was removed and stored on ice. The remaining pellet was homogenised and centrifuged as before. The supernatants were pooled and centrifuged at 25,000×g for 30 min at 4° C. The pellet was resuspended in freezing buffer consisting of 50 mM Tris-HCl, pH 7.4, 5 mM MgCl2 and 20% glycerol and stored in small aliquots at −80° C. until use. Protein concentration was determined using Bradford reagent and BSA as a standard.
Protein linearity followed by saturation binding studies were performed on each new batch of membrane. Membrane concentration was chosen that gave specific binding on the linear portion of the curve. Saturation binding studies were then performed using various concentrations of [^3H]-arginine vasopressin, [^3H]-AVP (0.05 nM-100 nM) and the Kd and Bmax determined.
Compounds were tested for their effects on [^3H]-AVP binding to CHO-hV1A membranes, (^3H-AVP; specific activity 65.5 Ci/mmol; NEN Life Sciences). Compounds were solubilised in dimethylsulfoxide (DMSO) and diluted to working concentration of 10% DMSO with assay buffer containing 50 mM Tris-HCL pH 7.4, 5 mM MgCl2 and 0.05% BSA. […] The binding reaction was initiated by the addition of 200 μl membrane and the plates were gently shaken for 60 min at room temperature. The reaction was terminated by rapid filtration using a Filtermate Cell Harvester (Packard Instruments) through a 96-well GF/B UniFilter Plate which had been presoaked in 0.5% polyethyleneimine to prevent peptide sticking. The filters were washed three times with 1 ml ice cold wash buffer containing 50 mM Tris-HCL pH 7.4 and 5 mM MgCl2. The plates were dried and 50 μl Microscint-0 (Packard instruments) was added to each well. The plates were sealed and counted on a TopCount Microplate Scintillation Counter (Packard Instruments). Non-specific binding (NSB) was determined using 1 μM unlabelled d(CH2)5Tyr(Me)AVP ([β-mercapto-β,β-cyclopentamethylenepropionyl,0-Me-Tyr^2,Arg^8]-vasopressin) (βMCPVP), (Sigma). The radioligand binding data was analysed using a four parameter logistic equation with the min forced to 0%. The slope was free fitted and fell between −0.75 and −1.25 for valid curves. Specific binding was calculated by subtracting the mean NSB cpm from the mean Total cpm. For test compounds the amount of ligand bound to the receptor was expressed as % bound=(sample cpm−mean NSB cpm)/specific binding cpm×100. The % bound was plotted against the concentration of test compound and a sigmoidal curve was fitted. The inhibitory dissociation constant (Ki) was calculated using the Cheng-Prusoff equation: Ki=IC50/(1+[L]/Kd) where [L] is the concentration of ligand present in the well and Kd is the dissociation constant of the radioligand obtained from Scatchard plot analysis. […]

T1 sequence (P37288 whole entry): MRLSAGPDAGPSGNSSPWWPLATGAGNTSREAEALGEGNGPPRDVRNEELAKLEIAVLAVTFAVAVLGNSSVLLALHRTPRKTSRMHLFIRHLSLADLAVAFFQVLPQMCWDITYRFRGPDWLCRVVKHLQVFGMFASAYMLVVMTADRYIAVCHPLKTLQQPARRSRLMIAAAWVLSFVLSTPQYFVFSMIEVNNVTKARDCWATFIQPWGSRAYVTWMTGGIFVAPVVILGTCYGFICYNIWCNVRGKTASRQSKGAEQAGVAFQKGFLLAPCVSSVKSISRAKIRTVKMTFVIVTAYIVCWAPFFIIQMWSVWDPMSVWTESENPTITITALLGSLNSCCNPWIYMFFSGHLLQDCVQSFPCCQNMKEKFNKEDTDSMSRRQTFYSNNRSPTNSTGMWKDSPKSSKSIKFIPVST

In order of falling Ki:
1. CN1Cc2cc(Cl)ccc2-n2c(nnc2C2CCN(C(=O)c3c[nH]c4ccccc34)CC2)C1 [Example 1, [4-(8-Chloro-5-methyl-5,6-dihydro-4H-2,3,5,10b-tetraaza-benzo[e]azulen-1-yl)-piperidin-1-yl]-(1H-indol-3-yl)-methanone]  73.8 nM
2. CN1Cc2cc(Cl)ccc2-n2c(nnc2C2CCN(C(=O)CC3CC3)CC2)C1 [Example 18, 1-[4-(8-Chloro-5-methyl-5,6-dihydro-4H-2,3,5,10b-tetraaza-benzo[e]azulen-1-yl)-piperidin-1-yl]-2-cyclopropyl-ethanone]  62.1 nM
3. CN1Cc2cc(Cl)ccc2-n2c(nnc2C2CCN(C(=O)C3(C)CCCCC3)CC2)C1 [Example 9, [4-(8-Chloro-5-methyl-5,6-dihydro-4H-2,3,5,10b-tetraaza-benzo[e]azulen-1-yl)-piperidin-1-yl]-(1-methyl-cyclohexyl)-methanone]  59.9 nM
4. Cc1ccccc1CC(=O)N1CCC(c2nnc3n2-c2ccc(Cl)cc2CN(C)C3)CC1 [Example 2, 1-[4-(8-Chloro-5-methyl-5,6-dihydro-4H-2,3,5,10b-tetraaza-benzo[e]azulen-1-yl)-piperidin-1-yl]-2-o-tolyl-ethanone]  35 nM
5. CN1Cc2cc(Cl)ccc2-n2c(nnc2C2CCN(C(=O)c3cc4ccccc4[nH]3)CC2)C1 [Example 64, [4-(8-Chloro-5-methyl-5,6-dihydro-4H-2,3,5,10b-tetraaza-benzo[e]azulen-1-yl)-piperidin-1-yl]-(1H-indol-2-yl)-methanone]  34.7 nM
6. CN1Cc2cc(Cl)ccc2-n2c(nnc2C2CCN(C(=O)c3ccc4cc[nH]c4c3)CC2)C1 [Example 67, [4-(8-Chloro-5-methyl-5,6-dihydro-4H-2,3,5,10b-tetraaza-benzo[e]azulen-1-yl)-piperidin-1-yl]-(1H-indol-6-yl)-methanone]  15.9 nM
